Entries after “also recorded” stand apart in the source; their conditions may differ.
How the values were obtained:
[1] = test system: pseudotyped NiV/VSV virus (pNiV)
[2] = test system: HEK293T cells expressing NiV F and G; type: cell-based
[3] = test system: SARS-CoV-2 (isolate USA-WA1/2020); type: cell-based
NiV G glycoprotein = NiV G glycoprotein (Nipah virus, UniProt Q9IH62)
[4] = test system: A/California/04/2009 (H1N1); type: cell-based, influenza virus
norovirus = experiment: Plaque assay for norovirus infection in RAW 264.7 cells; type: cell-based; settings: non-enveloped virus
Description: RAW 264.7 (ATCC) cells were infected with serial dilutions of norovirus for 1 h. 3% wt/vol Seaplaque agarose in 2×MEM media was placed as a first overlay. Then, cells were incubated for 48 h when plaques were visible and counted.

[5] = test system: vesicular stomatitis virus (VSV); type: cell-based
pNiV viral membranes = test system: pNiV viral membranes; set-up: species or system NiV
HSV-1 KOS = experiment: Plaque assay for HSV-1 infections; type: cell-based; settings: virions treated with XM-01 before infection, various concentrations
Description: At 3 h post-inoculation, the medium was removed. At 18 to 24 h post-infection, the culture medium was removed, and cells were fixed with an ice-cold methanol-acetone solution (2:1 ratio) for 20 min at […] and air-dried. Virus titers were determined by immunoperoxidase staining with anti-HSV polyclonal antibody HR50 (Fitzgerald Industries, Concord, MA) (Roller et al., “Structure-Function Analysis of Herpes Simplex Virus Glycoprotein B with Fusion-from-without Activity,” Virology 382:207-216 (2008), which is hereby incorporated by reference in its entirety).

[6] = test system: bovine rotavirus strain NCDV; experiment: Rotavirus infection assay in MA104 cells; type: cell-based; settings: non-enveloped virus
Description: 18β-glycyrrhetinic acid (GRA) (Sigma-Aldrich) stock solutions were prepared to a concentration of 100 mg/mL in DMSO and aliquots were stored at −80° C. The stock solutions were diluted to working concentrations in DMEM without FBS. For the control compounds, MA104 (ATCC) cells were treated for 6 h with 25 μg/mL GRA. The viability was measured with the Promega CellTiterGlo Assay according to the manufacturer's protocol, with digitonin as the control for 100% cytotoxicity. Data shown are representative of two experiments, with each concentration tested in triplicate in each experiment. Error bars indicate SEM. […] Mock-infected wells received 50 μl of 0% M199 vehicle media. 50 μl of fresh 2× control and experimental compounds were added and at 18 h post-infection, the cells were fixed for 10 min with 80% acetone (Hardy et al., “18 Beta-glycyrrhetinic Acid Inhibits Rotavirus Replication in Culture,” Virol. J. 9:96 (2012), which is hereby incorporated by reference in its entirety).

[7] = test system: NiV F and G glycoproteins; type: cell-based; settings: XM-01 treatment
NiV F protein = NiV F protein (Nipah virus, UniProt Q9IH63)
[8] = test system: Human Cytomegalovirus (HCMV); type: cell-based
[9] = test system: Human respiratory syncytial virus (RSV A2 strain); type: cell-based
[10] = target: NiV F and G on pNiV virions (Nipah virus, UniProt Q9IH62+Q9IH63)
NiV = settings: cited from earlier work

Sequence of NiV F protein (Q9IH63 110-546 limits assumed): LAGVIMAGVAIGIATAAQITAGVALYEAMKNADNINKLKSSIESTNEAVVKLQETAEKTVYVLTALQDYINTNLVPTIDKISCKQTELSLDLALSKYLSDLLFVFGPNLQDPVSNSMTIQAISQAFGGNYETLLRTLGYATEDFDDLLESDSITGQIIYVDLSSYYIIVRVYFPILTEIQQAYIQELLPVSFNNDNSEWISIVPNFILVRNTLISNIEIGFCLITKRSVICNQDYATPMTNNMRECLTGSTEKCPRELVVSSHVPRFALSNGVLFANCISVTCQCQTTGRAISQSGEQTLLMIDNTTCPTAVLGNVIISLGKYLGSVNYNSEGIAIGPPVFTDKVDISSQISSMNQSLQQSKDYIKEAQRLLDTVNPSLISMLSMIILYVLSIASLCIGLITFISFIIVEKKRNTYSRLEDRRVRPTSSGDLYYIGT
Sequence of NiV F protein (Q9IH63 27-109 limits assumed): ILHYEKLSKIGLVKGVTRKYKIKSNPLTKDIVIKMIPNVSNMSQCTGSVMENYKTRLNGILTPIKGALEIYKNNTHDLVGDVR
Sequence of NiV G glycoprotein (Q9IH62 whole entry, looked up): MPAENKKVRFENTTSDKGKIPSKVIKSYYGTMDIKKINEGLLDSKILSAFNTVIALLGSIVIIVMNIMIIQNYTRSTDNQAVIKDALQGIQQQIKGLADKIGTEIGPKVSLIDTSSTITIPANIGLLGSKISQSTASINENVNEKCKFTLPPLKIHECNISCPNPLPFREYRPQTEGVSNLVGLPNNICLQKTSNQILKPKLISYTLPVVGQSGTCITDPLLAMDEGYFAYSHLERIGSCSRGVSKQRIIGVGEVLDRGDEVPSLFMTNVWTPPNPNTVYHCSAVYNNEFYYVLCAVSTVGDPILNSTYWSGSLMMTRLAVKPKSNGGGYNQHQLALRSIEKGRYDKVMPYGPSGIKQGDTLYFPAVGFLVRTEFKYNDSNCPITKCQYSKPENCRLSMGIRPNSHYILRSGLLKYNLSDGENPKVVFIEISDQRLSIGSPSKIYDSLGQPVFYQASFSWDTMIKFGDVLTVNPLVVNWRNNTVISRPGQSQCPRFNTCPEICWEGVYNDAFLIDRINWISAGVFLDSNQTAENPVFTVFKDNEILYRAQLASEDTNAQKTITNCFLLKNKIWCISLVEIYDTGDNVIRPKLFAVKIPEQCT

For `CCCCNC(=O)C(CCSSC(=O)c1ccccc1)NC(=O)c1ccccc1` (stereo not drawn) [XM-06], the “infectivity of pNiV in Vero cells” value [1] was “best inhibited pNiV infections”.
With `C=CCN1C(=O)/C(=C/c2ccc(-c3ccccc3)o2)SC1=S` [LJ001, reference compound] the “antiviral activity in the absence of light” value [1] was “severely reduced in the absence of light” and the “cell-cell fusion (syncytia)” value [2] was “affect cell-cell fusion”.
For `C=O` [formalin, reference compound], the “inactivation of SARS-CoV-2” value [3] was “complete inactivation”.
With `O=C(SSC(=O)c1ccccc1)c1ccccc1` [XM-12] the “infectivity of pNiV in Vero cells” value [1] was “best inhibited pNiV infections”.
With `COC(=O)C(CSC(=O)c1ccccc1)NC(=O)c1ccccc1` (stereo not drawn) [XM-10] the “inhibitory properties against pNiV” value [1] was “inhibitory properties” and the cytotoxicity levels (Vero cells) was “low levels of cytotoxicity”.
In the case of `COC(=O)C(CSSC(=O)c1ccccc1)NC(=O)c1ccccc1` (stereo not drawn) [XM-01], the ephrinB2/G binding (NiV G glycoprotein) is reported as “did not interfere with the receptor-binding ability of the G glycoprotein”, the EC50 [1] is reported as about 1 µM and the “antiviral activity in the absence of light” value [1] is reported as “did not need light to inhibit pNiV infection”. For the same compound, the “difference between the inhibitory and cytotoxic concentrations” value [1] was ~ 3 log, the “infectivity of treated virions” value [1] was “highly inhibited” and the “inhibition of infection post-entry (time of XM-01 addition)” value [1] was “completely incapable of inhibiting the infection”. The “viral infection after pre-treatment of cells” value [1] was “did not significantly reduce viral infection”, the EC50 [4] was “high nanomolar to low micromolar range” and the “inhibition of influenza A/California/04/2009 infection” value [4] was “inhibited by XM-01 in a concentration-dependent fashion; also recorded: significantly inhibited”. The neutralization of influenza [4] was “complete neutralization”, the “inhibition of norovirus entry” value (norovirus) was “not inhibited” and the “inhibition of VSV infection” value [5] was “inhibited by XM-01 in a concentration-dependent fashion”. The “cell-cell membrane fusion (syncytia)” value [2] was “significantly reduced levels of cell-cell membrane fusion”, the “viral membrane appearance by electron microscopy” value (pNiV viral membranes) was “compromised membranes” and the “inhibition of HSV-1 infection” value (HSV-1 KOS) was “inhibited by XM-01 in a concentration-dependent fashion”. For the same compound, the “inhibition of rotavirus entry” value [6] was “not inhibited”, the “cell surface expression of F and G glycoproteins” value [7] was “not be significantly affected” and the F-triggering (NiV F protein) was “not decreased”. The CC50 (Vero cells) was about 1000 µM, the cytotoxicity (Vero cells) was “little to no cytotoxicity” and the cytotoxicity levels (Vero cells) was “low levels of cytotoxicity”. The “inhibition of HCMV infection” value [8] was “inhibited by XM-01 in a concentration-dependent fashion”, the “inhibition of RSV infection” value [9] was “inhibited by XM-01 in a concentration-dependent fashion” and the “antibody binding to F or G (conformation)” value [10] was “no significant changes in antibody binding to either glycoprotein”. For the same compound, the “inactivation of SARS-CoV-2” value [3] was “complete inactivation” and the “inhibition of plaque formation of SARS-CoV2” value [3] was “effective to inhibit plaque formation”.
With `COC(=O)C(CSSC(C)=O)NC(=O)c1ccccc1` (stereo not drawn) [XM-03] the “infectivity of pNiV in Vero cells” value [1] was “best inhibited pNiV infections”, the “inhibitory properties against pNiV” value [1] was “inhibitory properties” and the cytotoxicity levels (Vero cells) was “low levels of cytotoxicity”.
With `CC(=O)NC(CSSC(=O)c1ccccc1)C(=O)NCc1ccccc1` (stereo not drawn) [XM-02] the “infectivity of pNiV in Vero cells” value [1] was “best inhibited pNiV infections”, the “inhibitory properties against pNiV” value [1] was “inhibitory properties” and the cytotoxicity levels (Vero cells) was “low levels of cytotoxicity”.
In the case of `COC(=O)C(CSC(C)=O)NC(=O)c1ccccc1` (stereo not drawn) [XM-11], the “inhibitory properties against pNiV” value [1] is reported as “inhibitory properties” and the cytotoxicity levels (Vero cells) is reported as “low levels of cytotoxicity”.
In the case of `[Na+].[SH-]` [NaHS], the “antiviral effects against NiV” value (NiV) is given as “known antiviral effects against NiV, although at high (millimolar) concentrations”.

From patent US12728161B2 (priority 2019, dated 2026)
